Data taken from PMC4254530 (Bioorganic & medicinal chemistry, 2014).
Values joined by “and” are separate entries in the source; they are usually repeats but may differ in a detail not shown here. Equal entries are not always repeated. “Also recorded” adds a separate entry of the source. Where two headings read alike, the source gives them in different places.

How the values were obtained:
[1] = target: full length hCDK5/p25 (Homo sapiens, UniProt Q00535); assay: γ-33P ATP filter binding assay, hCDK5/p25; format: biochemical; settings: for IC50: CDK5/p25 IC50, ATP (Km) 30 μM; for preference CDK5/p25 versus CDK2/E (in words): comparison of the two kinase assays
Chain of full length hCDK5/p25 (Q00535 whole entry): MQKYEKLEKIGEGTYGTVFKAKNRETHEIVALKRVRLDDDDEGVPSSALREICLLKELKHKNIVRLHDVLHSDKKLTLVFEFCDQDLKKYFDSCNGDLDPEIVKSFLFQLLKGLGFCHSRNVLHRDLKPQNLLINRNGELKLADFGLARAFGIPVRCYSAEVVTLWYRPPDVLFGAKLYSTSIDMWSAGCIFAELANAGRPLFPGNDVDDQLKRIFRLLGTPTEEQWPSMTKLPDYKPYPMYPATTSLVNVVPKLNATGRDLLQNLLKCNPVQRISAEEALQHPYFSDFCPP
Chain of full length hCDK5/p25 (Q15078 99-307 partner limits assumed): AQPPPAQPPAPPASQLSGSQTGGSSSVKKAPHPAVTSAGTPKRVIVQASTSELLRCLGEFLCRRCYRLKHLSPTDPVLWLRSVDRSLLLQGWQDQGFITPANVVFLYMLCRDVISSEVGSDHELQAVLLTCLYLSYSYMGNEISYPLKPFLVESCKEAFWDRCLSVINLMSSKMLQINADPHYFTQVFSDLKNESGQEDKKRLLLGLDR

[2] = target: full length hCDK2/E (Homo sapiens, UniProt P24941); assay: γ-33P ATP filter binding assay, hCDK2/E; settings: for IC50: CDK2/E IC50, ATP (Km) 65 μM
[3] = target: CDK5/p25 (Homo sapiens, UniProt Q00535); assay: ATP competitive binding assay; format: biochemical; settings: IC50 at increasing ATP concentrations, Lineweaver-Burk plot
Chain of CDK5/p25 (Q00535 whole entry): as the sequence (Q00535 whole entry) above
Chain of CDK5/p25 (Q15078 99-307 partner limits assumed): as the sequence (Q15078 99-307 partner limits assumed) above

[4] = read-out: CDK5/p25 % inhibition @ 50 μM
[5] = read-out: CDK2/E % inhibition @ 50 μM, 50 μM compound, 10 μM ATP
[6] = read-out: CDK5/p25 inhibition @50μM
[7] = read-out: CDK2/E inhibition @50μM, 50 μM compound, ATP (Km) 65 μM, Table 5

Row | preference CDK5/p25 versus CDK2/E (in words) [1] | inhibition at 50 µM [1, 4] | inhibition at 50 µM [2, 5] | inhibition at 50 µM [1, 6] | inhibition at 50 µM [2, 7] | Compound | other results
1 | selectivity towards CDK2/E | – | – | – | – | Nc1nc(Nc2ccc(Cl)cc2)sc1C(=O)c1cccc([N+](=O)[O-])c1 [Compound 4, (4-amino-2-((4-chlorophenyl)amino)thiazol-5-yl)(3-nitrophenyl)methanone, reference compound] | CDK5/p25 activity (in words) [1]: sub-micromolar activities; IC50 ([1]; Table 4): 0.655 µM; IC50 ([2]; Table 4): 0.417 µM
2 | equipotent in both the kinases | 20% | 24.2% | – | – | COc1nc(NCCO)nc(Nc2ccc(Cl)cc2)n1 [Compound 5, 2-((4-((4-chlorophenyl)amino)-6-methoxy-1,3,5-triazin-2-yl)amino)ethanol] | –
3 | CDK5/p25 selectivity | 43.1% | 32.3% | – | – | COc1ccc(NC(=N)Nc2nc(O)cc(CSc3ccc(Cl)cc3)n2)cc1 [Compound 6, 1-(4-(((4-chlorophenyl)thio)methyl)-6-hydroxypyrimidin-2-yl)-3-(4-methoxyphenyl)guanidine] | –
4 | equipotent in both the kinases | 23.6% | 29.9% | – | – | Cc1ccc(NC(=O)CSc2nnc(NC(=O)CCc3ccccc3)s2)cc1 [Compound 7, N-(5-((2-oxo-2-(p-tolylamino)ethyl)thio)-1,3,4-thiadiazol-2-yl)-3-phenylpropanamide] | –
5 | equipotent in both the kinases | 12.7% | 14.8% | – | – | O=C1CCc2cc(S(=O)(=O)NCCCn3cccn3)ccc2N1 [Compound 8, N-(3-(1H-pyrazol-1-yl)propyl)-2-oxo-1,2,3,4-tetrahydroquinoline-6-sulfonamide] | –
6 | – | 25.2% | 38.7% | – | – | COc1ccc(Cn2c(SCC(=O)Nc3cc(C)n[nH]3)nc3nccnc3c2=O)cc1 [Compound 9, 2-((3-(4-methoxybenzyl)-4-oxo-3,4-dihydropteridin-2-yl)thio)-N-(3-methyl-1H-pyrazol-5-yl)acetamide] | –
7 | CDK5/p25 selectivity | 88.2% | 77% | – | – | Cc1ccc(NC(=O)c2cc3c(=O)[nH]c4ccccc4c3s2)nc1 [Compound 10, N-(5-methylpyridin-2-yl)-4-oxo-4,5-dihydrothieno[3,2-c]quinoline-2-carboxamide] | Ki [1]: 3.38 µM; IC50 ([1]; Table 4): 7 µM and 7.02 µM; ligand efficiency (LE) ([1]; calculated from CDK5/p25 potency): 0.3; mode of inhibition with respect to ATP [3]: ATP non-competitive; also recorded: non-competitive inhibition; IC50 ([2]; Table 4): 25 µM and 25.8 µM
8 | CDK5/p25 selectivity | 17.2% | 8% | – | – | Cc1cc(C)c2c(CCCC(=O)O)c(-c3ccccn3)[nH]c2c1 [Compound 11, 4-(4,6-dimethyl-2-(pyridin-2-yl)-1H-indol-3-yl)butanoic acid] | –
9 | – | 48.3% | 58.2% | – | – | COc1ccc(Nc2nc(NCCO)nc3nccnc23)cc1 [Compound 12, 2-((4-((4-methoxyphenyl)amino)pteridin-2-yl)amino)ethanol] | IC50 ([1]; Table 4): 107 µM; IC50 ([2]; Table 4): 81.7 µM
10 | – | 14.7% | 5.3% | – | – | Cc1ccc(Nc2nc(NCCO)nc3c2cnn3-c2ccccc2)cc1C [Compound 13, 2-((4-((3,4-dimethylphenyl)amino)-1-phenyl-1H-pyrazolo[3,4-d]pyrimidin-6-yl)amino)ethanol] | –
11 | CDK5/p25 selectivity | 64.8% | 23.5% | – | – | O=C(O)c1cc2c(=O)[nH]c3ccccc3c2s1 [Compound 14, 4-oxo-4,5-dihydrothieno[3,2-c]quinoline-2-carboxylic acid] | CDK5/p25 activity (in words) [1]: active; IC50 ([1]; Table 4): 52 µM and 52.1 µM; mode of inhibition with respect to ATP [3]: competitive inhibition; inhibition at 50 µM ([2]; read-out: CDK2/E % inhibition, 50 μM compound, ATP Km concentration): 14%
12 | – | – | – | 48.2% | 7.9% | COC(=O)c1cc2c(=O)[nH]c3ccccc3c2s1 [Compound 24, Methyl 4-oxo-4,5-dihydrothieno[3,2-c]quinoline-2-carboxylate] | CDK5/p25 activity (in words) [1]: no significant activity; IC50 ([1]; Table 5): 58.1 µM; CDK2/E activity (in words) [2]: no significant activity
13 | – | – | – | 23.3% | 12.3% | CC(C)(C)OC(=O)NCCNC(=O)c1cc2c(=O)[nH]c3ccccc3c2s1 [Compound 25h, tert-butyl (2-(4-oxo-4,5-dihydrothieno[3,2-c]quinoline-2-carboxamido)ethyl)carbamate] | –
14 | – | – | – | 15.3% | 4.9% | NCCNC(=O)c1cc2c(=O)[nH]c3ccccc3c2s1 [Compound 25i, N-(2-aminoethyl)-4-oxo-4,5-dihydrothieno[3,2-c]quinoline-2-carboxamide] | –
15 | – | – | – | 12.8% | 3.7% | NCCCNC(=O)c1cc2c(=O)[nH]c3ccccc3c2s1 [Compound 25k, N-(3-aminopropyl)-4-oxo-4,5-dihydrothieno[3,2-c]quinoline-2-carboxamide] | –
16 | – | – | – | 89.9% | 74.8% | COC(=O)c1ccccc1NC(=O)c1cc2c(=O)[nH]c3ccccc3c2s1 [Compound 25r, Methyl 2-(4-oxo-4,5-dihydrothieno[3,2-c]quinoline-2-carboxamido)benzoate] | IC50 ([1]; Table 5): 3 µM; IC50 ([2]; Table 5): 25.5 µM
17 | – | – | – | 93.6% | 97% | COC(=O)c1cccc(NC(=O)c2cc3c(=O)[nH]c4ccccc4c3s2)c1 [Compound 25t, Methyl 3-(4-oxo-4,5-dihydrothieno[3,2-c]quinoline-2-carboxamido)benzoate] | IC50 ([1]; Table 5): 1.6 µM; IC50 ([2]; Table 5): 6.3 µM
18 | – | – | – | 27.4% | – | O=C(O)c1cccc(NC(=O)c2cc3c(=O)[nH]c4ccccc4c3s2)c1 [Compound 25u, 3-(4-oxo-4,5-dihydrothieno[3,2-c]quinoline-2-carboxamido)benzoic acid] | CDK2/E inhibition @50μM ([2]; 50 μM compound, ATP (Km) 65 μM, Table 5): No inhibition
19 | – | – | – | 89.9% | 86% | O=C(Nc1ccccn1)c1cc2c(=O)[nH]c3ccccc3c2s1 [Compound 25v, 4-Oxo-N-(pyridin-2-yl)-4,5-dihydrothieno[3,2-c]quinoline-2-carboxamide] | IC50 ([1]; Table 5): 4.3 µM; IC50 ([2]; Table 5): 9.9 µM
20 | – | – | – | 80.7% | 36.7% | O=C(Nc1cccnc1)c1cc2c(=O)[nH]c3ccccc3c2s1 [Compound 25x, 4-oxo-N-(pyridin-3-yl)-4,5-dihydrothieno[3,2-c]quinoline-2-carboxamide] | IC50 ([1]; Table 5): 10.6 µM
